Source: PubChem BioAssay (NCI)
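A five-concentration, 48-hour dose response in 96-well plates underlies each endpoint, interpolated linearly between surrounding concentrations. TGI: concentration producing complete growth inhibition.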

Legend:
Assay in all cases: NCI tumour cell line growth inhibition, 48 h
UACC-62 melanoma = tested on: UACC-62 melanoma
SK-MEL-2 melanoma = tested on: SK-MEL-2 melanoma
SW-620 colon = tested on: SW-620 colon
HCT-15 colon = tested on: HCT-15 colon
COLO 205 colon = tested on: COLO 205 colon
OVCAR-3 ovarian = tested on: OVCAR-3 ovarian
CCRF-CEM leukemia = tested on: CCRF-CEM leukemia
DLD-1 colon = tested on: DLD-1 colon
M14 melanoma = tested on: M14 melanoma
K-562 leukemia = tested on: K-562 leukemia
SK-OV-3 ovarian = tested on: SK-OV-3 ovarian
A549 NSCLC = tested on: A549 NSCLC
LXFL 529 NSCLC = tested on: LXFL 529 NSCLC
786-0 renal = tested on: 786-0 renal
LOX IMVI melanoma = tested on: LOX IMVI melanoma
A498 renal = tested on: A498 renal
HT29 colon = tested on: HT29 colon
OVCAR-4 ovarian = tested on: OVCAR-4 ovarian
SK-MEL-5 melanoma = tested on: SK-MEL-5 melanoma
UACC-257 melanoma = tested on: UACC-257 melanoma
HL-60(TB) leukemia = tested on: HL-60(TB) leukemia
IGROV1 ovarian = tested on: IGROV1 ovarian
U251 CNS = tested on: U251 CNS
SF-539 CNS = tested on: SF-539 CNS
MOLT-4 leukemia = tested on: MOLT-4 leukemia
M19-MEL melanoma = tested on: M19-MEL melanoma
SN12C renal = tested on: SN12C renal
DMS 273 small cell lung = tested on: DMS 273 small cell lung
HOP-92 NSCLC = tested on: HOP-92 NSCLC
OVCAR-5 ovarian = tested on: OVCAR-5 ovarian
SNB-78 CNS = tested on: SNB-78 CNS
KM20L2 colon = tested on: KM20L2 colon
SNB-19 CNS = tested on: SNB-19 CNS
NCI-H460 lung = tested on: NCI-H460 lung
NCI-H522 lung = tested on: NCI-H522 lung
HOP-18 NSCLC = tested on: HOP-18 NSCLC
HOP-62 NSCLC = tested on: HOP-62 NSCLC
SNB-75 CNS = tested on: SNB-75 CNS
RPMI-8226 leukemia = tested on: RPMI-8226 leukemia
SK-MEL-28 melanoma = tested on: SK-MEL-28 melanoma
RXF 393 renal = tested on: RXF 393 renal
EKVX NSCLC = tested on: EKVX NSCLC
HCT-116 colon = tested on: HCT-116 colon
KM12 colon = tested on: KM12 colon
SF-295 CNS = tested on: SF-295 CNS
UO-31 renal = tested on: UO-31 renal
DMS 114 small cell lung = tested on: DMS 114 small cell lung
ACHN renal = tested on: ACHN renal
MALME-3M melanoma = tested on: MALME-3M melanoma
OVCAR-8 ovarian = tested on: OVCAR-8 ovarian
SF-268 CNS = tested on: SF-268 CNS
NCI-H23 lung = tested on: NCI-H23 lung
TK-10 renal = tested on: TK-10 renal
RXF-631 renal = tested on: RXF-631 renal
NCI-H226 lung = tested on: NCI-H226 lung
CAKI-1 renal = tested on: CAKI-1 renal
XF 498 CNS = tested on: XF 498 CNS
HCC-2998 colon = tested on: HCC-2998 colon
SR leukemia = tested on: SR leukemia

C#CCN(N=O)C(=O)ON1C(=O)CCC1=O
TGI (UACC-62 melanoma): > 100 µM | TGI (SK-MEL-2 melanoma): > 100 µM | TGI (SW-620 colon): > 100 µM | TGI (HCT-15 colon): > 100 µM | TGI (COLO 205 colon): > 100 µM | TGI (OVCAR-3 ovarian): > 100 µM | TGI (CCRF-CEM leukemia): > 100 µM | TGI (DLD-1 colon): > 100 µM | TGI (M14 melanoma): > 100 µM | TGI (K-562 leukemia): > 100 µM | TGI (SK-OV-3 ovarian): > 100 µM | TGI (A549 NSCLC): > 100 µM | TGI (LXFL 529 NSCLC): > 100 µM | TGI (786-0 renal): > 100 µM | TGI (LOX IMVI melanoma): > 100 µM | TGI (A498 renal): > 100 µM | TGI (HT29 colon): > 100 µM | TGI (OVCAR-4 ovarian): > 100 µM | TGI (SK-MEL-5 melanoma): > 100 µM | TGI (UACC-257 melanoma): > 100 µM | TGI (HL-60(TB) leukemia): > 100 µM | TGI (IGROV1 ovarian): > 100 µM | TGI (U251 CNS): > 100 µM | TGI (SF-539 CNS): > 100 µM | TGI (MOLT-4 leukemia): > 100 µM | TGI (M19-MEL melanoma): > 100 µM | TGI (SN12C renal): > 100 µM | TGI (DMS 273 small cell lung): > 100 µM | TGI (HOP-92 NSCLC): > 100 µM | TGI (OVCAR-5 ovarian): > 100 µM | TGI (SNB-78 CNS): > 100 µM | TGI (KM20L2 colon): > 100 µM | TGI (SNB-19 CNS): > 100 µM | TGI (NCI-H460 lung): > 100 µM | TGI (NCI-H522 lung): > 100 µM | TGI (HOP-18 NSCLC): > 100 µM | TGI (HOP-62 NSCLC): > 100 µM | TGI (SNB-75 CNS): > 100 µM | TGI (RPMI-8226 leukemia): > 100 µM | TGI (SK-MEL-28 melanoma): > 100 µM | TGI (RXF 393 renal): > 100 µM | TGI (EKVX NSCLC): > 100 µM | TGI (HCT-116 colon): > 100 µM | TGI (KM12 colon): > 100 µM | TGI (SF-295 CNS): > 100 µM | TGI (UO-31 renal): > 100 µM | TGI (DMS 114 small cell lung): > 100 µM | TGI (ACHN renal): > 100 µM | TGI (MALME-3M melanoma): > 100 µM | TGI (OVCAR-8 ovarian): > 100 µM | TGI (SF-268 CNS): > 100 µM | TGI (NCI-H23 lung): > 100 µM | TGI (TK-10 renal): > 100 µM

O=C1CCC2(c3ccccc3)Nc3ccccc3N12 (stereo not given)
TGI (UACC-62 melanoma): > 100 µM | TGI (SK-MEL-2 melanoma): > 100 µM | TGI (SW-620 colon): > 100 µM | TGI (HCT-15 colon): > 100 µM | TGI (COLO 205 colon): > 100 µM | TGI (OVCAR-3 ovarian): > 100 µM | TGI (CCRF-CEM leukemia): > 100 µM | TGI (DLD-1 colon): > 100 µM | TGI (M14 melanoma): > 100 µM | TGI (RXF-631 renal): > 100 µM | TGI (K-562 leukemia): > 100 µM | TGI (A549 NSCLC): > 100 µM | TGI (LXFL 529 NSCLC): > 100 µM | TGI (786-0 renal): > 100 µM | TGI (NCI-H226 lung): > 100 µM | TGI (LOX IMVI melanoma): > 100 µM | TGI (A498 renal): > 100 µM | TGI (HT29 colon): > 100 µM | TGI (CAKI-1 renal): > 100 µM | TGI (OVCAR-4 ovarian): > 100 µM | TGI (SK-MEL-5 melanoma): > 100 µM | TGI (UACC-257 melanoma): > 100 µM | TGI (HL-60(TB) leukemia): > 100 µM | TGI (IGROV1 ovarian): > 100 µM | TGI (U251 CNS): > 100 µM | TGI (SF-539 CNS): > 100 µM | TGI (MOLT-4 leukemia): > 100 µM | TGI (M19-MEL melanoma): > 100 µM | TGI (SN12C renal): > 100 µM | TGI (HOP-92 NSCLC): > 100 µM | TGI (OVCAR-5 ovarian): > 100 µM | TGI (SNB-78 CNS): > 100 µM | TGI (KM20L2 colon): > 100 µM | TGI (NCI-H460 lung): > 100 µM | TGI (NCI-H522 lung): > 100 µM | TGI (HOP-62 NSCLC): > 100 µM | TGI (SNB-75 CNS): > 100 µM | TGI (RPMI-8226 leukemia): > 100 µM | TGI (SK-MEL-28 melanoma): > 100 µM | TGI (RXF 393 renal): > 100 µM | TGI (EKVX NSCLC): > 100 µM | TGI (KM12 colon): > 100 µM | TGI (SF-295 CNS): > 100 µM | TGI (UO-31 renal): > 100 µM | TGI (DMS 114 small cell lung): > 100 µM | TGI (XF 498 CNS): > 100 µM | TGI (ACHN renal): > 100 µM | TGI (MALME-3M melanoma): > 100 µM | TGI (OVCAR-8 ovarian): > 100 µM | TGI (SF-268 CNS): > 100 µM | TGI (NCI-H23 lung): > 100 µM | TGI (HCC-2998 colon): > 100 µM | TGI (TK-10 renal): > 100 µM

CC1(C)COC2C(N(Cc3ccccc3)Cc3ccccc3)C(=O)N21 (stereo not given)
TGI (UACC-62 melanoma): 61 µM | TGI (SW-620 colon): > 100 µM | TGI (HCT-15 colon): > 100 µM | TGI (COLO 205 colon): 61.8 µM | TGI (OVCAR-3 ovarian): > 100 µM | TGI (CCRF-CEM leukemia): > 100 µM | TGI (DLD-1 colon): > 100 µM | TGI (M14 melanoma): 56.2 µM | TGI (K-562 leukemia): 82.9 µM | TGI (SK-OV-3 ovarian): 66.1 µM | TGI (A549 NSCLC): > 100 µM | TGI (LXFL 529 NSCLC): > 100 µM | TGI (786-0 renal): > 100 µM | TGI (SR leukemia): 54.7 µM | TGI (NCI-H226 lung): > 100 µM | TGI (LOX IMVI melanoma): > 100 µM | TGI (A498 renal): > 100 µM | TGI (HT29 colon): > 100 µM | TGI (CAKI-1 renal): > 100 µM | TGI (OVCAR-4 ovarian): > 100 µM | TGI (SK-MEL-5 melanoma): > 100 µM | TGI (UACC-257 melanoma): > 100 µM | TGI (HL-60(TB) leukemia): 62.9 µM | TGI (IGROV1 ovarian): > 100 µM | TGI (U251 CNS): 70.8 µM | TGI (SF-539 CNS): 69.8 µM | TGI (MOLT-4 leukemia): > 100 µM | TGI (M19-MEL melanoma): > 100 µM | TGI (SN12C renal): > 100 µM | TGI (HOP-92 NSCLC): 80.5 µM | TGI (OVCAR-5 ovarian): > 100 µM | TGI (SNB-78 CNS): > 100 µM | TGI (KM20L2 colon): > 100 µM | TGI (SNB-19 CNS): 71.8 µM | TGI (NCI-H460 lung): > 100 µM | TGI (NCI-H522 lung): 45.6 µM | TGI (HOP-18 NSCLC): > 100 µM | TGI (HOP-62 NSCLC): > 100 µM | TGI (SNB-75 CNS): 41.2 µM | TGI (RPMI-8226 leukemia): 91.3 µM | TGI (SK-MEL-28 melanoma): > 100 µM | TGI (RXF 393 renal): 42.5 µM | TGI (EKVX NSCLC): > 100 µM | TGI (HCT-116 colon): > 100 µM | TGI (KM12 colon): > 100 µM | TGI (SF-295 CNS): 88.8 µM | TGI (UO-31 renal): > 100 µM | TGI (ACHN renal): > 100 µM | TGI (MALME-3M melanoma): > 100 µM | TGI (OVCAR-8 ovarian): > 100 µM | TGI (SF-268 CNS): 82.1 µM | TGI (NCI-H23 lung): > 100 µM | TGI (HCC-2998 colon): > 100 µM | TGI (TK-10 renal): > 100 µM
